The values that follow come from patent US11130769B2 (Prelude Therapeutics Incorporated, priority 2018, dated 2021).

For one test, the target named is MCL-1 (Homo sapiens (Human), UniProt Q07820). In words: Cell free Mcl-1:Bim affinity assay (fluorescence polarization competition). It is filed as binding. The settings on record: 15 nM MCL-1, 5 nM FITC-Bim, 1 hour at room temperature; class symbols; read-out: BIM_Ki. The method, boiled down:
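Compounds competed with FITC-labelled Bim peptide (5 nM) for MCL-1 (15 nM) in HEPES/NaCl buffer with 1% DMSO, 1 h at room temperature. Fluorescence polarization (535 nm emission) gave % inhibition versus DMSO and positive controls; IC50 from 10-point curves, converted to Ki by the Nikolovska-Coleska equation.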

Another test has as its system H929 cells. The test is described as follows: Cell viability assay (H929 10 FBS). It is filed as cell-based. The settings on record: Homo sapiens, NCI-H929, 24 hours, read-out: H929_10FBS IC50. The method, boiled down: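 H929 cells, 4000/well, in RPMI 1640 with 10% FBS, sodium pyruvate, HEPES and glucose were exposed to compound 24 h at 37 °C. Viability read as luminescence after 30-60 min at RT with CellTiter-Glo or ATPlite 1 Step.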

Chain of MCL-1 (Q07820 whole entry): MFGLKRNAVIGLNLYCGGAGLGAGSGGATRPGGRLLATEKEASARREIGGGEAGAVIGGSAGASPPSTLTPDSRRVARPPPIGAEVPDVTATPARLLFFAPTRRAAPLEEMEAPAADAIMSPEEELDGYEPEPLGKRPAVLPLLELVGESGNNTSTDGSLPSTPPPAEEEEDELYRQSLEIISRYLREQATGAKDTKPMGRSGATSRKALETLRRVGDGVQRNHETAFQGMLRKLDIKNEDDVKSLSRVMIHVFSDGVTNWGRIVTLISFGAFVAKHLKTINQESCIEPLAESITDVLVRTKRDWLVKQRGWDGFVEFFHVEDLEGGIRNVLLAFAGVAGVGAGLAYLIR

On to `CO[C@@H]1/C=C\CN[C@@H](C)C(=O)NS(=O)(=O)c2ccc3c(c2)N(C[C@@H]2CC[C@H]21)C[C@@]1(CCCc2cc(Cl)ccc21)CO3` [Example 118, (3R,6R,7R,8Z,12S,22S)-6′-Chloro-7-methoxy-12-methyl-15,15-dioxo-spiro[20-oxa-15-thia-1,11,14-triazatetracyclo[14.7.2.03,6.019,24]pentacosa-8,16(25),17,19(24)-tetraene-22,1′-tetralin]-13-one], for which the Ki on MCL-1 lay in the range of 1 to 100 nM. In the test with H929 cells, the IC50 was more than 1000 nM.
The corresponding values for `CO[C@@H]1/C=C/CNC2(CC2)C(=O)NS(=O)(=O)c2ccc3c(c2)N(C[C@@H]2CC[C@H]21)C[C@@]1(CCCc2cc(Cl)ccc21)CO3` [Example 119, (3R,6R,7R,8E,22S)-6′-Chloro-7-methoxy-12,12-ethylene-15,15-dioxo-spiro[20-oxa-15-thia-1,11,14-triazatetracyclo[14.7.2.03,6.019,24]pentacosa[8,16(25),17,19(24)]tetraene-22,1′-tetralin]-13-one] are 1 to 100 nM and less than 1000 nM.
For the molecule `CO[C@@H]1/C=C/CN(C)C2(CCC2)C(=O)NS(=O)(=O)c2ccc3c(c2)N(C[C@@H]2CC[C@H]21)C[C@@]1(CCCc2cc(Cl)ccc21)CO3` [Example 120, (3R,6R,7R,8E,22S)-6′-Chloro-7-methoxy-11-methyl-12,12-(1,3-propylene)-15,15-dioxo-spiro[20-oxa-15-thia-1,11,14-triazatetracyclo[14.7.2.03,6.019,24]pentacosa[8,16(25),17,19(24)]tetraene-22,1′-tetralin]-13-one], the Ki on MCL-1 is 1 to 100 nM. In the test on H929 cells, the IC50 was less than 1000 nM.
For `CO[C@@H]1/C=C/CN[C@H](C)C(=O)NS(=O)(=O)c2ccc3c(c2)N(C[C@@H]2CC[C@H]21)C[C@@]1(CCCc2cc(Cl)ccc21)CO3` [Example 121, (3R,6R,7R,8E,12R,22S)-6′-Chloro-7-methoxy-12-methyl-15,15-dioxo-spiro[20-oxa-15-thia-1,11,14-triazatetracyclo[14.7.2.03,6.019,24]pentacosa-8,16(25),17,19(24)-tetraene-22,1′-tetralin]-13-one] the same measures were 1 to 100 nM and more than 1000 nM.
Consider `CO[C@@H]1/C=C\CN[C@H](C)C(=O)NS(=O)(=O)c2ccc3c(c2)N(C[C@@H]2CC[C@H]21)C[C@@]1(CCCc2cc(Cl)ccc21)CO3` [Example 122, (3R,6R,7R,8Z,12R,22S)-6′-Chloro-7-methoxy-12-methyl-15,15-dioxo-spiro[20-oxa-15-thia-1,11,14-triazatetracyclo[14.7.2.03,6.019,24]pentacosa-8,16(25),17,19(24)-tetraene-22,1′-tetralin]-13-one], for which, on MCL-1, the Ki is 1 to 100 nM. Moreover, in the test on H929 cells, the IC50 is more than 1000 nM.
As to `CO[C@@H]1/C=C/CN(C)[C@H](C)C(=O)NS(=O)(=O)c2ccc3c(c2)N(C[C@@H]2CC[C@H]21)C[C@@]1(CCCc2cc(Cl)ccc21)CO3` [Example 123, (3R,6R,7R,8E,12R,22S)-6′-Chloro-7-methoxy-11,12-dimethyl-15,15-dioxo-spiro[20-oxa-15-thia-1,11,14-triazatetracyclo[14.7.2.03,6.019,24]pentacosa-8,16(25),17,19(24)-tetraene-22,1′-tetralin]-13-one], the Ki at MCL-1 fell in the range of 1 to 100 nM. Moreover, the IC50 in the test with H929 cells is less than 1000 nM.
For `CO[C@@H]1/C=C\CN(C)[C@H](C)C(=O)NS(=O)(=O)c2ccc3c(c2)N(C[C@@H]2CC[C@H]21)C[C@@]1(CCCc2cc(Cl)ccc21)CO3` [Example 124, (3R,6R,7R,8Z,12R,22S)-6′-Chloro-7-methoxy-11,12-dimethyl-15,15-dioxo-spiro[20-oxa-15-thia-1,11,14-triazatetracyclo[14.7.2.03,6.019,24]pentacosa-8,16(25),17,19(24)-tetraene-22,1′-tetralin]-13-one] the same measures were 1 to 100 nM and less than 1000 nM.
Take `COC[C@@H]1OC/C=C/[C@@H](OC)[C@@H]2CC[C@H]2CN2C[C@@]3(CCCc4cc(Cl)ccc43)COc3ccc(cc32)S(=O)(=O)NC1=O` [Example 125, (3R,6R,7R,8E,12S,22S)-6′-Chloro-7-methoxy-12-(methoxymethyl)-15,15-dioxo-spiro[11,20-dioxa-15-thia-1,14-diazatetracyclo[14.7.2.03,6.019,24]pentacosa-8,16(25),17,19(24)-tetraene-22,1′-tetralin]-13-one]: on MCL-1, the Ki is less than 1 nM. The IC50 in the test with H929 cells was more than 1000 nM.
For `CO[C@@H]1/C=C/CN[C@@H](C2CC2)C(=O)NS(=O)(=O)c2ccc3c(c2)N(C[C@@H]2CC[C@H]21)C[C@@]1(CCCc2cc(Cl)ccc21)CO3` [Example 126, (3R,6R,7R,8E,12S,22S)-6′-Chloro-7-methoxy-12-cyclopropyl-15,15-dioxo-spiro[20-oxa-15-thia-1,11,14-triazatetracyclo[14.7.2.03,6.019,24]pentacosa-8,16,18,24-tetraene-22,1′-tetralin]-13-one] the same measures were 1 to 100 nM and more than 1000 nM.
As for `CO[C@@H]1/C=C/CN(C)[C@@H](C2CC2)C(=O)NS(=O)(=O)c2ccc3c(c2)N(C[C@@H]2CC[C@H]21)C[C@@]1(CCCc2cc(Cl)ccc21)CO3` [Example 127, (3R,6R,7R,8E,12S,22S)-6′-Chloro-12-cyclopropyl-7-methoxy-11-methyl-15,15-dioxo-spiro[20-oxa-15-thia-1,11,14-triazatetracyclo[14.7.2.0˜3,6.0˜19,24]pentacosa-8,16,18,24-tetraene-22,1′-tetralin]-13-one], the Ki at MCL-1 was 1 to 100 nM. Further, in the test with H929 cells, the IC50 was less than 1000 nM.
For `CO[C@@H]1/C=C/CN[C@@H](C(C)C)C(=O)NS(=O)(=O)c2ccc3c(c2)N(C[C@@H]2CC[C@H]21)C[C@@]1(CCCc2cc(Cl)ccc21)CO3` [Example 128, (3R,6R,7R,8E,12S,22S)-6′-Chloro-7-methoxy-12-isopropyl-15,15-dioxo-spiro[20-oxa-15-thia-1,11,14-triazatetracyclo[14.7.2.03,6.019,24]pentacosa-8,16,18,24-tetraene-22,1′-tetralin]-13-one] the same measures were 1 to 100 nM and more than 1000 nM.
The corresponding values for `CO[C@@H]1/C=C/CN(C)[C@@H](C(C)C)C(=O)NS(=O)(=O)c2ccc3c(c2)N(C[C@@H]2CC[C@H]21)C[C@@]1(CCCc2cc(Cl)ccc21)CO3` [Example 129, (3R,6R,7R,8E,12S,22S)-6′-Chloro-7-methoxy-11-methyl-12-isopropyl-15,15-dioxo-spiro[20-oxa-15-thia-1,11,14-triazatetracyclo[14.7.2.03,6.019,24]pentacosa-8,16,18,24-tetraene-22,1′-tetralin]-13-one] are 1 to 100 nM and more than 1000 nM.
For `CO[C@@H]1/C=C\CNC(=O)NS(=O)(=O)c2ccc3c(c2)N(C[C@@H]2CC[C@H]21)C[C@@]1(CCCc2cc(Cl)ccc21)CO3` [Example 130, (3R,6R,7R,8Z,21S)-6′-Chloro-7-methoxy-14,14-dioxo-spiro[19-oxa-14-thia-1,11,13-triazatetracyclo[13.7.2.03,6.018,23]tetracosa-8,15,17,23-tetraene-21,1′-tetralin]-12-one] the same measures were 1 to 100 nM and more than 1000 nM.
Take `CO[C@@H]1/C=C/CNC(=O)NS(=O)(=O)c2ccc3c(c2)N(C[C@@H]2CC[C@H]21)C[C@@]1(CCCc2cc(Cl)ccc21)CO3` [Example 131, (3R,6R,7R,8E,21S)-6′-chloro-7-methoxy-14,14-dioxo-spiro[19-oxa-14-thia-1,11,13-triazatetracyclo[13.7.2.03,6.018,23]tetracosa-8,15,17,23-tetraene-21,1′-tetralin]-12-one]: on MCL-1, the Ki lay in the range of 1 to 100 nM. The IC50 in the test on H929 cells is more than 1000 nM.
The corresponding values for `CCN1C/C=C/[C@@H](OC)[C@@H]2CC[C@H]2CN2C[C@@]3(CCCc4cc(Cl)ccc43)COc3ccc(cc32)S(=O)(=O)NC(=O)[C@H]1C` [Example 132, (3R,6R,7R,8E,12R,22S)-6′-Chloro-7-methoxy-11-ethyl-12-methyl-15,15-dioxo-spiro[20-oxa-15-thia-1,11,14-triazatetracyclo[14.7.2.03,6.019,24]pentacosa-8,16(25),17,19(24)-tetraene-22,1′-tetralin]-13-one] are 1 to 100 nM and less than 500 nM.
For the molecule `CO[C@@H]1/C=C/CN(C(C)=O)[C@H](C)C(=O)NS(=O)(=O)c2ccc3c(c2)N(C[C@@H]2CC[C@H]21)C[C@@]1(CCCc2cc(Cl)ccc21)CO3` [Example 133, (3R,6R,7R,8E,12R,22S)-6′-Chloro-7-methoxy-11-acetyl-12-methyl-15,15-dioxo-spiro[20-oxa-15-thia-1,11,14-triazatetracyclo[14.7.2.03,6.019,24]pentacosa-8,16(25),17,19(24)-tetraene-22,1′-tetralin]-13-one], the Ki at MCL-1 lay in the range of 1 to 100 nM. Further, in the test with H929 cells, the IC50 is more than 1000 nM.
For `COC(=O)N1C/C=C/[C@@H](OC)[C@@H]2CC[C@H]2CN2C[C@@]3(CCCc4cc(Cl)ccc43)COc3ccc(cc32)S(=O)(=O)NC(=O)[C@H]1C` [Example 134, Methyl (3R,6R,7R,8E,12R,22S)-6′-Chloro-7-methoxy-12-methyl-13,15,15-trioxo-spiro[20-oxa-15-thia-1,11,14-triazatetracyclo[14.7.2.03,6.019,24]pentacosa-8,16,18,24-tetraene-22,1′-tetralin]-11-carboxylate] the same measures were 1 to 100 nM and more than 1000 nM.
The corresponding values for `CO[C@@H]1/C=C/CN(S(C)(=O)=O)[C@H](C)C(=O)NS(=O)(=O)c2ccc3c(c2)N(C[C@@H]2CC[C@H]21)C[C@@]1(CCCc2cc(Cl)ccc21)CO3` [Example 135, (3R,6R,7R,8E,12R,22S)-6′-Chloro-7-methoxy-12-methyl-11-methylsulfonyl-15,15-dioxo-spiro[20-oxa-15-thia-1,11,14-triazatetracyclo[14.7.2.03,6.019,24]pentacosa-8,16,18,24-tetraene-22,1′-tetralin]-13-one] are 1 to 100 nM and more than 1000 nM.
